According to patent US20090246292A1, “ANTIMICROBIAL FORMULATIONS COMPRISING A QUINONE AND A COPPER SALT” (priority 2006, published 2009):

Key:
S. aureus ATCC 29213 [1] = test: Minimum inhibitory concentration (MIC) assay; format: cell-based, Staphylococcus aureus
Text: (a) Minimum Inhibitory Concentration (MIC) Assay
The culture media were as described above.
The assays included both negative (culture medium with no micro-organisms) and positive (culture medium plus diluting solvent plus micro-organism) controls.

P. acnes PRP-002 = P. acnes PRP-002 (resistance Tet/MLS); agar dilution
Protocol: (§1) This is a standard international method for quantitatively assessing the antimicrobial activity of a compound in a solid medium. […] A set amount of these antimicrobial stock solutions was then added to molten agar medium (ca. 55° C.), mixed thoroughly, poured into sterile Petri dishes and allowed to cool/set. The culture medium was as described above.
(§2) A Multipoint™ Inoculator (AQS Manufacturing Ltd, UK) was used to inoculate the plates by spotting the inocula onto the surface of the agar, delivering approximately 1 to 2 μl per spot (yielding 10^5 CFU (colony forming units) per spot).
(§3) The plate(s) were then incubated under the conditions described above, following which they were examined visually for signs of bacterial growth. The MIC value was ascertained when there was a marked reduction in, or total loss of, growth on the test plate at the lowest concentration as compared to that of the growth on the control plate.

P. acnes PRP-003 [2] = settings: P. acnes PRP-003 (resistance Tet); agar dilution
Protocol: as §1, §2, §3

P. acnes PRP-004 = P. acnes PRP-004 (resistance Tet); agar dilution
Protocol: as §1, §2, §3

P. acnes PRP-007 = P. acnes PRP-007 (resistance Clin); agar dilution
Protocol: as §1, §2, §3

P. acnes PRP-008 = P. acnes PRP-008 (resistance Clin); agar dilution
Protocol: as §1, §2, §3

P. acnes PRP-010 = P. acnes PRP-010 (resistance MLSK); agar dilution
Protocol: as §1, §2, §3

P. acnes PRP-017 = P. acnes PRP-017 (resistance MLS); agar dilution
Protocol: as §1, §2, §3

P. acnes PRP-023 = P. acnes PRP-023 (resistance MLSK); agar dilution
Protocol: as §1, §2, §3

P. acnes PRP-026 [3] = settings: P. acnes PRP-026 (resistance MLS); agar dilution
Protocol: as §1, §2, §3

P. acnes PRP-039 [4] = settings: P. acnes PRP-039 (resistance Tet/MLS); agar dilution
Protocol: as §1, §2, §3

P. acnes PRP-046 = P. acnes PRP-046 (resistance None); agar dilution
Protocol: as §1, §2, §3

P. acnes PRP-053 = P. acnes PRP-053 (resistance Tet/MLS); agar dilution
Protocol: as §1, §2, §3

P. acnes PRP-059 = P. acnes PRP-059 (resistance MLS); agar dilution
Protocol: as §1, §2, §3

P. acnes PRP-068 = P. acnes PRP-068 (resistance Ery); agar dilution
Protocol: as §1, §2, §3

P. acnes PRP-101 = P. acnes PRP-101 (resistance Tet/MLS); agar dilution
Protocol: as §1, §2, §3

P. acnes PRP-102 = P. acnes PRP-102 (resistance Tet/MLS); agar dilution
Protocol: as §1, §2, §3

P. granulosum NCTC 11865 = P. granulosum NCTC 11865 (resistance None); agar dilution
Protocol: as §1, §2, §3

P. granulosum PRP-005 = P. granulosum PRP-005 (resistance MLSK); agar dilution
Protocol: as §1, §2, §3

P. granulosum PRP-006 = P. granulosum PRP-006 (resistance MLS); agar dilution
Protocol: as §1, §2, §3

P. granulosum PRP-019 = P. granulosum PRP-019 (resistance MLSK); agar dilution
Protocol: as §1, §2, §3

P. granulosum PRP-021 = P. granulosum PRP-021 (resistance MLS); agar dilution
Protocol: as §1, §2, §3

P. granulosum PRP-043 = P. granulosum PRP-043 (resistance MLS); agar dilution
Protocol: as §1, §2, §3

P. granulosum PRP-044 = P. granulosum PRP-044 (resistance MLS); agar dilution
Protocol: as §1, §2, §3

P. granulosum PRP-055 = P. granulosum PRP-055 (resistance None); agar dilution
Protocol: as §1, §2, §3

P. acnes PRP-003 [5] = test: Disc diffusion assay (DDA), also supplemented; format: cell-based, Propionibacterium acnes; settings: 200 μg per disc
Protocol: (§4) The propionibacteria were cultured and maintained on Wilkins-Chalgren Anaerobe Medium (agar and broth) at pH 6.0; all cultures were incubated anaerobically at 37° C. for 72 hours.
(§5) A sterile paper disc was impregnated with a sample of the test compound in a suitable solvent and 30 minutes allowed for the solvents to evaporate (where possible). The disc was then placed on an agar plate onto which the test micro-organism had been inoculated. The plate was then incubated under the conditions described above, following which it was examined visually for signs of bacterial growth. […] The diameter of this zone of “inhibition” was measured using a ProtoCOL™ automated zone sizer (Synbiosis, Cambridge, UK).
(§6) For assays using Propionibacterium spp. strains the supplements used in the examples below were lipid (either Tween™ 80 or triolein, both at 1% v/v) and sodium chloride (100 mM).

P. acnes PRP-026 [6] = test: Disc diffusion assay (DDA), also supplemented; format: cell-based, Propionibacterium acnes; settings: 200 μg per disc
Protocol: as §4, §5, §6

P. acnes PRP-039 [7] = test: Disc diffusion assay (DDA), also supplemented; format: cell-based, Propionibacterium acnes; settings: 200 μg per disc
S. aureus ATCC 29213 [8] = test: Synergy disc diffusion assay (SDDA), also supplemented;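 also: disc diffusion on Mueller-Hinton agar at pH 7.2, aerobic incubation at 37 °C lasting 19-20 h, two compounds assessed jointly for combined antimicrobial effect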

O.O.O.O.O.O=S(=O)([O-])[O-].[Cu+2] [Copper (II) sulphate pentahydrate]
MIC (S. aureus ATCC 29213 [1]): >250 µg/mL | MIC (P. acnes PRP-002): 7.8 µg/mL | MIC (P. acnes PRP-003 [2]): 7.8 µg/mL | MIC (P. acnes PRP-004): 7.8 µg/mL | MIC (P. acnes PRP-007): 7.8 µg/mL | MIC (P. acnes PRP-008): 7.8 µg/mL | MIC (P. acnes PRP-010): 7.8 µg/mL | MIC (P. acnes PRP-017): 7.8 µg/mL | MIC (P. acnes PRP-023): 7.8 µg/mL | MIC (P. acnes PRP-026 [3]): 7.8 µg/mL | MIC (P. acnes PRP-039 [4]): 7.8 µg/mL | MIC (P. acnes PRP-046): 7.8 µg/mL | MIC (P. acnes PRP-053): 7.8 µg/mL | MIC (P. acnes PRP-059): 7.8 µg/mL | MIC (P. acnes PRP-068): 7.8 µg/mL | MIC (P. acnes PRP-101): 7.8 µg/mL | MIC (P. acnes PRP-102): 7.8 µg/mL | MIC (P. granulosum NCTC 11865): 7.8 µg/mL | MIC (P. granulosum PRP-005): 62.5 µg/mL | MIC (P. granulosum PRP-006): 62.5 µg/mL | MIC (P. granulosum PRP-019): 62.5 µg/mL | MIC (P. granulosum PRP-021): 62.5 µg/mL | MIC (P. granulosum PRP-043): 7.8 µg/mL | MIC (P. granulosum PRP-044): 62.5 µg/mL | MIC (P. granulosum PRP-055): 62.5 µg/mL | DDA + salt (P. acnes PRP-003 [5]): 51.99 mm | DDA + lipid (P. acnes PRP-003 [5]; 1% (v/v) triolein): 45.91 mm | DDA (P. acnes PRP-003 [5]; single replicate): 52.60 mm | DDA (P. acnes PRP-003 [5]; Table 12 series): 50.18 mm | DDA + salt (P. acnes PRP-026 [6]): 52.90 mm | DDA + lipid (P. acnes PRP-026 [6]; 1% (v/v) triolein): 53.21 mm | DDA (P. acnes PRP-026 [6]; single replicate): 51.08 mm | DDA (P. acnes PRP-026 [6]; Table 12 series): 56.14 mm | DDA + salt (P. acnes PRP-039 [7]): 61.72 mm | DDA + lipid (P. acnes PRP-039 [7]; 1% (v/v) triolein): 59.29 mm | DDA (P. acnes PRP-039 [7]; single replicate): 53.51 mm | DDA (P. acnes PRP-039 [7]; Table 12 series): 56.35 mm | SDDA area increase (S. aureus ATCC 29213 [8]): 88.33% | SDDA increase (S. aureus ATCC 29213 [8]): 15.05 mm | SDDA with TBHQ (S. aureus ATCC 29213 [8]): 55.47 mm | SS SDDA area increase (S. aureus ATCC 29213 [8]): 10.90% | SS SDDA increase (S. aureus ATCC 29213 [8]): 2.32 mm | SS SDDA with TBHQ (S. aureus ATCC 29213 [8]): 46.00 mm
